Assay results: US10624968B2, “Compounds for treating cancer” (Bicycle Therapeutics Limited, priority 2017, dated 2020)
Read-outs that look alike come from different tables or passages of the source. Each block holds one compound with its values, some of them ahead of it. Starred links: 1 amine or outer side, 2 acyl side, 3 side chain; linkers in the order of their positions; H or OH if unused. Positions of bridges follow the written chain, without caps; N, C: chain ends. Non-standard residues stand in square brackets, D forms with d. Residues, ends and D or L forms follow the SMILES beside them. 1Nal = N[C@@H](Cc1cccc2ccccc12)C(=O)O; TBMB = c1c(C[*:1])cc(C[*:3])cc1C[*:2]; Tle = CC(C)(C)[C@H](N)C(=O)O; βAla = NCCC(=O)O; Sar = CNCC(=O)O

Experiments:
[1] = test system: HCT15; conditions: historical, read-out: IC50* (Historical IC50 observed for paclitaxel); cited from earlier work
[2] = test system: MOLP-8; conditions: historical, read-out: IC50* (Historical IC50 observed for paclitaxel); cited from earlier work
[3] = test system: NCI-H1975; conditions: historical, read-out: IC50* (Historical IC50 observed for paclitaxel); cited from earlier work
[4] = test system: HT29; conditions: historical, read-out: IC50* (Historical IC50 observed for paclitaxel); cited from earlier work
[5] = test system: MDA-MB-231; conditions: historical, read-out: IC50* (Historical IC50 observed for paclitaxel); cited from earlier work
[6] = test system: HT1080; conditions: historical, read-out: IC50* (Historical IC50 observed for paclitaxel); cited from earlier work
[7] = test system: SNU-16; conditions: historical, read-out: IC50* (Historical IC50 observed for paclitaxel); cited from earlier work
[8] = test system: PC-3; conditions: historical, read-out: IC50* (Historical IC50 observed for paclitaxel); cited from earlier work
[9] = test system: NCI-H292; conditions: historical, read-out: IC50* (Historical IC50 observed for paclitaxel); cited from earlier work
[10] = test system: SNU-16; test: cells; conditions: Homo sapiens, SNU-16, 72 h
Description: (§1) Details of the initial cell plating procedure are described in Table 3.
(§2) Data Details for Tables 5 and 6. Inhibition %=(Max−Sample value)/(Max−Min)*100.
(§3) The IC50 curves were generated by 4 Parameter Logistic Model—Sigmoidal Dose-Response Model as follows: Y=Bottom+(Top−Bottom)/(1+10^((log EC50-X)*HillSlope)).

[11] = test system: HCC1806; test: cells; conditions: Homo sapiens, HCC1806, 72 h
Description: as §1, §2, §3

[12] = test system: PC-3; test: cells; conditions: Homo sapiens, PC-3, 72 h
Description: as §1, §2, §3

[13] = test system: NCI-H1975; test: cells; conditions: Homo sapiens, NCI-H1975, 72 h
Description: as §1, §2, §3

[14] = test system: HT29; test: cells; conditions: Homo sapiens, HT-29, 72 h
Description: as §1, §2, §3

[15] = test system: EBC-1; test: cells; conditions: Homo sapiens, EBC-1, 72 h
Description: as §1, §2, §3

[16] = test system: MDA-MB-231; test: cells; conditions: Homo sapiens, MDA-MB-231, 72 h
Description: as §1, §2, §3

[17] = test system: NCI-H292; test: cells; conditions: Homo sapiens, NCI-H292, 72 h
Description: as §1, §2, §3

[18] = test system: HCT15; test: cells; conditions: Homo sapiens, HCT-15, 72 h
Description: as §1, §2, §3

[19] = test system: HT1080; test: cells; conditions: Homo sapiens, HT-1080, 72 h
Description: as §1, §2, §3

[20] = test system: MOLP-8; test: cells; conditions: Homo sapiens, MOLP-8, 72 h
Description: as §1, §2, §3

[21] = test system: 11 tumor cell lines; test: 11 cancer cell line panel cytotoxicity, statements on the whole panel
Description: as §1, §2, §3

[22] = test system: HCC1806; conditions: historical, read-out: IC50* (Historical IC50 observed for paclitaxel); cited from earlier work
[23] = test system: EBC-1; conditions: historical, read-out: IC50* (Historical IC50 observed for paclitaxel); cited from earlier work
[24] = target: MT1-MMP (Homo sapiens, UniProt P50281); test: MT1-MMP fluorescent polarization competition; type: binding; conditions: up to 20 μM
[25] = target: MMP16 (Homo sapiens, UniProt P51512); test: Binding to related MMP family members
[26] = target: T1, MMP1 (Homo sapiens, UniProt P03956); test: Effect on related MMP catalytic activity; type: biochemical
[27] = test system: catalytic domain of MT1; test: Bicycle peptide binding to catalytic domain
[28] = target: T2, Pro-MMP1 (Homo sapiens, UniProt P03956); test: Binding to related MMP family members
T2 construct: (MMP15, MMP16, MMP24, MMP1, Pro-MMP1, MMP2)

[29] = target: MMP15 (Homo sapiens, UniProt P51511); test: Binding to related MMP family members
[30] = target: hemopexin domain of MT1 (Homo sapiens, UniProt P50281); test: Bicycle peptide binding to hemopexin domain of MT1; conditions: read-out: apparent Kd
[31] = target: MMP24 (Homo sapiens, UniProt Q9Y5R2); test: Binding to related MMP family members
[32] = test system: cell migration or invasion; test: Effect on cell migration or invasion; type: cell-based
[33] = target: T3, MMP2 (Homo sapiens, UniProt P08253); test: Binding to related MMP family members
[34] = target: MT1 (Homo sapiens, UniProt P50281); test: Effect on catalytic activity of the protease in vitro; type: biochemical
[35] = target: T1, MMP1; test: Binding to related MMP family members
[36] = target: MMP9 (Homo sapiens, UniProt P14780); test: Effect on related MMP catalytic activity; type: biochemical
[37] = target: T3, MMP2; test: Effect on related MMP catalytic activity; type: biochemical

T1 sequence (P03956 100-469, species assumed): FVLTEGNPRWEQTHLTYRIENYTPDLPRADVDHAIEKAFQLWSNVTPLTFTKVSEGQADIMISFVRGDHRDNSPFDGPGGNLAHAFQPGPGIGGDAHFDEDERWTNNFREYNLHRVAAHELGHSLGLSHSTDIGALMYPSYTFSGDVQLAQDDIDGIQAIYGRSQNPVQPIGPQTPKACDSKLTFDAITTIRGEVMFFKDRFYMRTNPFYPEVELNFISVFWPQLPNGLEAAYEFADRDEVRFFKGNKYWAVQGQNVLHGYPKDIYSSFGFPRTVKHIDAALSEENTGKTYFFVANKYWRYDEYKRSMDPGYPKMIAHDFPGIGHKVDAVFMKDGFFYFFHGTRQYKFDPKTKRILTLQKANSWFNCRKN
T3 sequence (P08253 110-660, species assumed): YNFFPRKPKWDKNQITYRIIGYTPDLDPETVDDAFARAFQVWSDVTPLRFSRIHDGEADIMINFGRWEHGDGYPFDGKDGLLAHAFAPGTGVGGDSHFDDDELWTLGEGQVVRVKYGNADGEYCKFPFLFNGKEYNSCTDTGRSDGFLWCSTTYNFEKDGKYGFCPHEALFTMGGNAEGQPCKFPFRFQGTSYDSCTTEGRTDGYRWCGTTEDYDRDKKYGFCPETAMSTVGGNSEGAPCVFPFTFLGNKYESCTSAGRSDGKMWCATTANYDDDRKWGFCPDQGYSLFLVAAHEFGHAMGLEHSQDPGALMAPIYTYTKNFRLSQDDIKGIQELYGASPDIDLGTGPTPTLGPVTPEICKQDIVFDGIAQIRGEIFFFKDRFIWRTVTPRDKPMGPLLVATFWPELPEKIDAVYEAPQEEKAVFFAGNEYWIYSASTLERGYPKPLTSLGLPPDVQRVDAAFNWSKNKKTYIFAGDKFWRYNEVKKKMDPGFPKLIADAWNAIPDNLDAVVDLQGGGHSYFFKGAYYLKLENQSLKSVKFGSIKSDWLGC
Sequence of MMP24 (Q9Y5R2 156-645, species assumed): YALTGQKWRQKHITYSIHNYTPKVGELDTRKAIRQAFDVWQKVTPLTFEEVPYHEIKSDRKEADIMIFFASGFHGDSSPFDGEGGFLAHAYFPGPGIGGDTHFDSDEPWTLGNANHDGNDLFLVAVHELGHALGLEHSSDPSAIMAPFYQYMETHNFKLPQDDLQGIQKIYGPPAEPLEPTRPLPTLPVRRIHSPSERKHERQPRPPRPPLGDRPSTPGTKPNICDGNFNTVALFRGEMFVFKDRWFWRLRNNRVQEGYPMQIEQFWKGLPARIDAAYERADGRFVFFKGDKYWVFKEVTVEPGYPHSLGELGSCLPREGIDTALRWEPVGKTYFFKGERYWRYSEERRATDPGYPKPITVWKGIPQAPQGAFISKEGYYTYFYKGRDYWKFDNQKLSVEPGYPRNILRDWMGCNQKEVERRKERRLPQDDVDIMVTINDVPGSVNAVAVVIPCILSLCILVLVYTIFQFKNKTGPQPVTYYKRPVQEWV
Sequence of MMP15 (P51511 132-669, species assumed): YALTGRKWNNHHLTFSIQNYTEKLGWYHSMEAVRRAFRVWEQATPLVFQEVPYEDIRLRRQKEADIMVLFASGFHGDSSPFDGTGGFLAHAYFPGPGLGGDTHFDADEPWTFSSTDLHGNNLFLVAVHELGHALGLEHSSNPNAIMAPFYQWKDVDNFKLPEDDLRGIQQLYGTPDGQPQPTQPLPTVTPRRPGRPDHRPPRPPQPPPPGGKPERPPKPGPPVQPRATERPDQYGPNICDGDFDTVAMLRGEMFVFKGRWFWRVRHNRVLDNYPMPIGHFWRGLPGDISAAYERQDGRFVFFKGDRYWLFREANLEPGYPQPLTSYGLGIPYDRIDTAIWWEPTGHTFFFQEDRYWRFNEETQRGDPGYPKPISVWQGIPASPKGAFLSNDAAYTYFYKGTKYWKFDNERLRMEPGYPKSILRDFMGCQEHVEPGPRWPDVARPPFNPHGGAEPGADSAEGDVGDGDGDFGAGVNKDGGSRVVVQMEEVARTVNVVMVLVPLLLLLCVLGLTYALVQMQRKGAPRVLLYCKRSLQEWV
T2 sequence (P03956 20-469 limits assumed): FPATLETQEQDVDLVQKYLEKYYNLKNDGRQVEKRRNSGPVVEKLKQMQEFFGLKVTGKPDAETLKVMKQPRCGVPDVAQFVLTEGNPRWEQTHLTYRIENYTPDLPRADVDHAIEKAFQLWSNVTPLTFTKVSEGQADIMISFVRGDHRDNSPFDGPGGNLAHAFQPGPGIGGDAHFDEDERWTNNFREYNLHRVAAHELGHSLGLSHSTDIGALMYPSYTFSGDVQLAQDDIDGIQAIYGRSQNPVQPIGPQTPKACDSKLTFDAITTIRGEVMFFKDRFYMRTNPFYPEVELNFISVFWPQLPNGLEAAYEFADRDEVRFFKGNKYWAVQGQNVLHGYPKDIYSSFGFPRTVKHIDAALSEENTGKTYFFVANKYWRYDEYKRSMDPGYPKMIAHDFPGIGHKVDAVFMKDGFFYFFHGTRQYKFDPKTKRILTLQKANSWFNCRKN
Sequence of MMP9 (P14780 94-707, species assumed): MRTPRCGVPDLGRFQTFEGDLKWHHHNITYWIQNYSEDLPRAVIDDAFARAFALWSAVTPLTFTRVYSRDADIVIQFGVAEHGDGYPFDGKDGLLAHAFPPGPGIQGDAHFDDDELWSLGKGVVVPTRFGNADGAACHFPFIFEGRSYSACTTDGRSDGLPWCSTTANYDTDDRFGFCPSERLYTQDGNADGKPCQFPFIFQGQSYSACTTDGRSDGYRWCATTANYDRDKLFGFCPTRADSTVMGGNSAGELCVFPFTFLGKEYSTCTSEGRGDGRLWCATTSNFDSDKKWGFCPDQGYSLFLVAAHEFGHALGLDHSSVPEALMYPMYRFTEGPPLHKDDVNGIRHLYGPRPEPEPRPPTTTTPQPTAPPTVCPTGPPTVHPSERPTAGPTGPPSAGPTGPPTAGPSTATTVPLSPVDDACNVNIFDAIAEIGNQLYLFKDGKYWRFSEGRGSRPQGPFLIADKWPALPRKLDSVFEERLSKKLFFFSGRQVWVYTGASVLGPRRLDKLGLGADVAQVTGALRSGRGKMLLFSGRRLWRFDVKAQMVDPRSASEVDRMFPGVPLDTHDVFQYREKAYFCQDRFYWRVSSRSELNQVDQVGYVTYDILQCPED
Sequence of MMP16 (P51512 120-607, species assumed): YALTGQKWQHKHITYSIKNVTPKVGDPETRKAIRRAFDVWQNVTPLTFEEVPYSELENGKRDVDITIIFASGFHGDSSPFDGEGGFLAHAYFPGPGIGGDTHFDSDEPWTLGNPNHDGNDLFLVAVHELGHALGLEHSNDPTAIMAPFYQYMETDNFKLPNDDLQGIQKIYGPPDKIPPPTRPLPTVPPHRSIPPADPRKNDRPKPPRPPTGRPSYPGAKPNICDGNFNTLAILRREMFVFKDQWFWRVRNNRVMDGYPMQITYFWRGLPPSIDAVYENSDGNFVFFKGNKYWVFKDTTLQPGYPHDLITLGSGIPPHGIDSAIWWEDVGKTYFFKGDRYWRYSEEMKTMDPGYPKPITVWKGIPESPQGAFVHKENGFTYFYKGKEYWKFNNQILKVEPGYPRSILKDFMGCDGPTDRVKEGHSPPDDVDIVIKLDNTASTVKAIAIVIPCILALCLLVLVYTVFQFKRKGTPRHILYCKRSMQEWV

IC50 [10]: 2.5 nM | IC50 [11]: 2.7 nM | IC50 [12]: 9.2 nM | IC50 [13]: 7.2 nM | IC50 [14]: 4.1 nM | IC50 [15]: 4.1 nM | IC50 [16]: 4.8 nM | IC50 [17]: 2.9 nM | IC50 [18]: 112 nM | IC50 [19]: 6.6 nM | IC50 [20]: 6.9 nM
Compound: CC(=O)O[C@H]1C(=O)[C@@]2(C)[C@H]([C@H](OC(=O)c3ccccc3)[C@]3(O)C[C@H](OC(=O)[C@H](O)[C@@H](NC(=O)c4ccccc4)c4ccccc4)C(C)=C1C3(C)C)[C@]1(OC(C)=O)CO[C@@H]1C[C@@H]2O [Paclitaxel]
IC50 [1]: 128 nM | IC50 [2]: 4 nM | IC50 [3]: 5 nM | IC50 [4]: 2 nM | IC50 [5]: 9 nM | IC50 [6]: 1 nM | IC50 [7]: 2 nM | IC50 [8]: 12 nM | IC50 [9]: 2 nM | cytotoxic activity over the cell line panel (in words) [21]: worked well on all the tested cell lines | IC50 [22]: 2 nM | IC50 [23]: 4 nM

inhibition in MT1-MMP fluorescent polarization competition [24]: no inhibition
Compound: (B-Ala)-Sar10-ACVPCADFPIWYC (SEQ ID NO: 17) (AXXXXXXXXXXACVPCADFPIWYC; not fully specified; N-methyl; non-natural residues) [non-binding peptide]

Compound: C[C@H](NC(=O)CN(C)C(=O)CN(C)C(=O)CN(C)C(=O)CN(C)C(=O)CN(C)C(=O)CN(C)C(=O)CN(C)C(=O)CN(C)C(=O)CN(C)C(=O)CN(C)C(=O)CCN)C(=O)N[C@H]1CSCc2cc3cc(c2)CSC[C@H](NC(=O)[C@@H](C)NC(=O)[C@H](Cc2cccc4ccccc24)NC(=O)[C@H](CCC(=O)O)NC(=O)[C@H](CC(N)=O)NC(=O)[C@@H](C)NC1=O)C(=O)N[C@@H](CCC(=O)O)C(=O)N[C@@H](CC(=O)O)C(=O)N[C@@H](Cc1ccccc1)C(=O)N[C@@H](Cc1ccc(O)cc1)C(=O)N[C@@H](CC(=O)O)C(=O)N[C@@H](C(C)(C)C)C(=O)N[C@H](C(N)=O)CSC3 [Compound N241] (H-[βAla][Sar][Sar][Sar][Sar][Sar][Sar][Sar][Sar][Sar][Sar]AC[dA]NE[1Nal][dA]CEDFYD[Tle]C-NH2; linker 13-19-26 via TBMB; N-terminus and C-terminus assumed)
binding (in words) [25]: no binding | impact on catalytic activity (in words) [26]: no direct impact | binding (in words) [27]: no binding | binding (in words) [28]: no binding | binding (in words) [29]: no binding | Kd [30]: ~2 nM | binding (in words) [31]: no binding | impact on cell migration or invasion (in words) [32]: no direct impact | binding (in words) [33]: no binding | impact on catalytic activity (in words) [34]: no direct impact | binding (in words) [35]: no binding | impact on catalytic activity (in words) [36]: no direct impact | impact on catalytic activity (in words) [37]: no direct impact
